Experimental findings from US11140897B2, “Liquid-core capsules for pest control” (Katz Biotech AG, priority 2015, dated 2021) are described below.

Data set [1] can be described thus: loss in mass of alginate model cylinders with additives in the hydrogel. The format is physicochemical. As for the experimental part: The following table summarizes the absolute losses in mass for alginate model cylinders (d=13 mm, h=13 mm) after 240 minutes, with the addition of various additives in their most suitable concentrations and the relative losses in mass compared to the losses in mass of the standard specimen without the additives (MCC—microcrystalline cellulose, EC—ethyl cellulose).

Data set [2] is described as follows: active substance release from liquid-core capsules in two manufacturing variants (headspace sampling, GC-MS). The format is physicochemical. Particulars: 1 week. As to the method:
The experiment was conducted in principle as in the model system described in Section D in terms of odor collection and analysis using gas chromatography with mass spectrometry coupling. The following table and FIG. 6 summarize the results of the experiment.

Data set [3] concerns Lygus rugulipennis. The data set can be described thus: olfactometer experiments for attractant effect on true bugs. The format is in vivo. Particulars: for true bugs running in the direction of the attractant / attracting action: attractant concentration 0.01 μg/μL (FIG. 7). As for the experimental part:
Comparative behavior studies were conducted on the bug species Lygus rugulipennis in the olfactometer for identifying suitable attractants (odors). The attracting action of a total of 28 different concentrations of substances and substance mixtures was determined in about 380 individual tests. A result was considered purely coincidental if 50% of the animals decided in favor of an odor and 50% decided against. The odor is considered attractive if more than about 65% of the animals move towards it. […] The certainty of the evaluation increases with the number of tests and is accepted after about 10 repetitions.

Data set [4] concerns Lygus rugulipennis. Kind of data set: effect on true bugs after ingesting core liquid with active substance. The format is in vivo. As to the method: Experiments were conducted with Lygus rugulipennis and the liquid-core capsules according to the invention, wherein an aqueous nutrient solution having 0.5% NeemAzal® T/S (biological active substance: azadirachtin 0.1%) was present in the core of the capsules. Another experiment was conducted with the chemical active substance acetamiprid (0.01%). When they had contact with the liquid-core capsules, the true bugs used their proboscis to pierce the outer shells of the liquid-core capsules and ingest at least some of the core solution. […] The animals were subjected to a 6-hour hunger phase prior to the beginning of the experiment. […] The lengthy dwell time of the proboscis in the capsule permits this conclusion. With the imago insects, this was an average of 160 seconds, 150 seconds with the nymphs. With the imago insects, this was preceded by a mean testing period (feeling the capsule with the proboscis) of about 30 seconds.
The true bugs ceased their activity nearly entirely about 1 day after ingesting the core liquid with the active substance azadirachtin and died after 5 days, on average. The chemical active substance acetamiprid took effect a few seconds after being ingested.

In a further data set the test system is true bugs. Kind of data set: electrophysiological examinations (electroantennography) of true bugs. The conditions noted are these: higher concentration (10 μg/μL, FIG. 9). As for the experimental part: Electroantennography is a method for measuring the olfactory reactions of an insect by recording electrical signals on the antennae, wherein slow changes in receptor potential that are preferably recorded in the extracellular space within the insect antenna are analyzed. Complex odor mixtures may be investigated using this method. For instance, the use of electroantennography for identifying attractants for wasps is known from DE 11 2010 005 095 T5.
FIGS. 8 and 9 summarize the results of electrophysiological examinations of true bugs. Green leaf volatiles (Z)-3-hexenyl acetate, (Z)-3-hexen-1-ol, 1-hexenal, the terpenoids (E)-β-caryophyllene, methyl salicylate, ocimene, phenylacetaldehyde, nonanal, alpha-pinene, and geraniol were tested as plant odors, hexyl butyrate and (E)-2-hexenyl butyrate were tested as pheromones of insects, and a synthetic active substance mixture made of (Z)-3-hexen-1-ol, (E)-β-caryophyllene, and hexyl butyrate were tested. FIG. 8 provides the responses in female (a) and male (b) true bugs at an active substance concentration of 0.1 μg/μL. FIG. 9 provides the responses in female (a) and male (b) true bugs at an active substance concentration of 10 μg/μL.

The mark [5] stands for this setting: core: nutrient solution with 0.5% NeemAzal T/S (azadirachtin 0.1%).

The structures appear in SMILES notation.

For `CCCCCCCCCCCCCCCCCC(=O)O` [Stearic acid], the “Loss in mass [%] after 240 min with additive (“Specimen”)” value in data set [1] (alginate model cylinders d=13 mm, h=13 mm, additive in its most suitable concentration) is on record as 6.92%. The “Specimen loss in mass after 240 min compared to Standard loss in mass [%]” value in data set [1] (relative to standard specimen without additive) was −6.87%.

Regarding `CC/C=C\CCO` [(Z)-3-hexen-1-ol], the odor collected in data set [2] (capsules Type 1) is reported as 0.5%; in data set [2] (capsules Type 2), 7.8%. Further, the “quantity of odor per unit of time” value in data set [2] (capsules Type 1) was 15.2 µg; in data set [2] (capsules Type 2), 235.1 µg. Besides, the “true bugs running in the direction of the attractant / attracting action” value with Lygus rugulipennis [3] is given as 80%. The “change of attracting effect in increased concentrations” value (from here on “change … in increased concentrations”) in the data set with Lygus rugulipennis [3] (in vivo) is given as “reduced”.

Turning to `C/C(=N\C#N)N(C)Cc1ccc(Cl)nc1` [acetamiprid], the “time until active substance took effect after being ingested” value in the data set on Lygus rugulipennis [4] (acetamiprid 0.01% in core) is “a few seconds”. Moreover, the time to death result in the data set with Lygus rugulipennis [4] (acetamiprid 0.01% in core, after violent quivering) was “a few minutes later”.

Turning to `O=CCc1ccccc1` [phenylacetaldehyde], the “registration by antennal chemoreceptors” value with true bugs is “registered”.

As for `CCCCCCOC(=O)CCC` [Hexyl butyrate], in data set [2] (capsules Type 1), the odor collected amounted to 2.0% and the “quantity of odor per unit of time” value came out at 58.8 µg. Moreover, in data set [2] (capsules Type 2), the odor collected came to 19.7% and the “quantity of odor per unit of time” value was 592.0 µg. Further, the “attraction in olfactometer experiments” value in the data set on Lygus rugulipennis [3] (in vivo) is “not preferred”.

`C=C1CC/C=C(\C)CC[C@@H]2[C@@H]1CC2(C)C` [(E)-b-caryophyllene]: in data set [2] (capsules Type 1), the odor collected stood at 6.8% and the “quantity of odor per unit of time” value is 205.2 µg. For the same molecule, in data set [2] (capsules Type 2), the odor collected is recorded as 26.0% and the “quantity of odor per unit of time” value worked out at 781.0 µg. Moreover, the “true bugs running in the direction of the attractant / attracting action” value in the data set with Lygus rugulipennis [3] worked out at 80%. Also, the “change … in increased concentrations” value in the data set with Lygus rugulipennis [3] (in vivo) is “reduced”.

For `CCCCCCCCC=O` [nonanal], the “true bugs running in the direction of the attractant / attracting action” value with Lygus rugulipennis [3] is “about 45%”. For the same molecule, the attracting action entry in the data set on Lygus rugulipennis [3] (concentration 1 μg/μL) is reported as “about 60%”. In addition, the “change … in increased concentrations” value in the data set on Lygus rugulipennis [3] (in vivo) was “increases”. Also, the “registration by antennal chemoreceptors” value with true bugs is “registered”.

As to `C/C=C(\C)C(=O)O[C@H]1C[C@@H](OC(C)=O)[C@@]2(C(=O)OC)CO[C@H]3[C@@H](O)[C@@](C)([C@]45O[C@@]4(C)[C@H]4C[C@@H]5O[C@@H]5OC=C[C@@]54O)[C@H]4[C@]1(CO[C@]4(O)C(=O)OC)[C@@H]32` [azadirachtin], in the data set with Lygus rugulipennis [4] (setting [5]), the “time to death, on average” value was 5 days and the “time until activity ceased nearly entirely after ingesting the core liquid” value is given as “about 1 day”.
